In patent publication US20220105058A1, “USE OF 3-O-SULFAMATE-16,16-DIMETHYL-D-HOMOEQUILENIN TO TREAT ONCOLOGICAL DISEASES” (priority 2018, published 2022):
Marks after values point to notes of the source that are not given here.

Test system: Breast tumors (BT) in female FBV/N mice transgenic for HER-2/neu
Test: antitumor activity in mice with HER-2/neu breast tumors
Assay type: in vivo, FVB mice transgenic for HER-2/neu
Details: for average total volume of tumors, % changes from baseline / average volume of tumors, % changes from baseline: 28 days
Excerpt: The age of animals at the beginning of the study was 21-41 weeks and weight was 25-30 g.
The control groups were given the olive oil (placebo).
TGI=(Vctrl−Vexp)/Vctrl×100(%),

CC1(C)CC(=O)[C@@]2(C)CCc3c(ccc4cc(OS(N)(=O)=O)ccc34)[C@@H]2C1 [medicament, 3-O-sulfamate-16,16-dimethyl-D-homoequilenin]
Average volume of new tumors at the end of observation period (M) (medicament 20 mg/kg): 0.15 cm^3 | average total volume of tumors, % changes from baseline (medicament 20 mg/kg): 106% | average volume of tumors, % changes from baseline (medicament 20 mg/kg): 103% | TGI (average total tumor volume) (medicament 20 mg/kg, Day 0): 25% | TGI (average tumor volume) (medicament 20 mg/kg, Day 0): 8% | average total volume of tumors in mice (M) (medicament 20 mg/kg, Day 0): 1.69 cm^3 | average volume of tumors (M) (medicament 20 mg/kg, Day 0): 0.35 cm^3 | relative change of the average total volume to that of Day − 1 (M) (medicament 20 mg/kg, Day 0): 0% | TGI (average total tumor volume) (medicament 20 mg/kg, Day 7): 36% | TGI (average tumor volume) (medicament 20 mg/kg, Day 7): 22% | average total volume of tumors in mice (M) (medicament 20 mg/kg, Day 7): 1.93 cm^3 | average volume of tumors (M) (medicament 20 mg/kg, Day 7): 0.39 cm^3 | relative change of the average total volume to that of Day − 1 (M) (medicament 20 mg/kg, Day 7): 19% | TGI (average total tumor volume) (medicament 20 mg/kg, Day 14): 36% | TGI (average tumor volume) (medicament 20 mg/kg, Day 14): 21% | average total volume of tumors in mice (M) (medicament 20 mg/kg, Day 14): 2.67* cm^3 | average volume of tumors (M) (medicament 20 mg/kg, Day 14): 0.55 cm^3 | relative change of the average total volume to that of Day − 1 (M) (medicament 20 mg/kg, Day 14): 64^a % | TGI (average total tumor volume) (medicament 20 mg/kg, Day 21): 38% | TGI (average tumor volume) (medicament 20 mg/kg, Day 21): 25% | average total volume of tumors in mice (M) (medicament 20 mg/kg, Day 21): 3.15** cm^3 | average volume of tumors (M) (medicament 20 mg/kg, Day 21): 0.64 cm^3 | relative change of the average total volume to that of Day − 1 (M) (medicament 20 mg/kg, Day 21): 91^aa % | TGI (average total tumor volume) (medicament 20 mg/kg, Day 28): 40% | TGI (average tumor volume) (medicament 20 mg/kg, Day 28): 27% | average total volume of tumors in mice (M) (medicament 20 mg/kg, Day 28): 3.48**^a cm^3 | average volume of tumors (M) (medicament 20 mg/kg, Day 28): 0.71* cm^3 | relative change of the average total volume to that of Day − 1 (M) (medicament 20 mg/kg, Day 28): 107*^aa % | Total number of new tumors (medicament 20 mg/kg, end of experiment): 23 | frequency of tumor stabilizations (medicament 20 mg/kg, end of observation): 22% | Average volume of new tumors at the end of observation period (M) (medicament 100 mg/kg): 0.12* cm^3 | average total volume of tumors, % changes from baseline (medicament 100 mg/kg): 59% | average volume of tumors, % changes from baseline (medicament 100 mg/kg): 60% | TGI (average total tumor volume) (medicament 100 mg/kg, Day 0): 25% | TGI (average tumor volume) (medicament 100 mg/kg, Day 0): 8% | average total volume of tumors in mice (M) (medicament 100 mg/kg, Day 0): 1.70 cm^3 | average volume of tumors (M) (medicament 100 mg/kg, Day 0): 0.35 cm^3 | relative change of the average total volume to that of Day − 1 (M) (medicament 100 mg/kg, Day 0): 0% | TGI (average total tumor volume) (medicament 100 mg/kg, Day 7): 41% | TGI (average tumor volume) (medicament 100 mg/kg, Day 7): 26% | average total volume of tumors in mice (M) (medicament 100 mg/kg, Day 7): 1.79 cm^3 | average volume of tumors (M) (medicament 100 mg/kg, Day 7): 0.37 cm^3 | relative change of the average total volume to that of Day − 1 (M) (medicament 100 mg/kg, Day 7): 1^a % | TGI (average total tumor volume) (medicament 100 mg/kg, Day 14): 45% | TGI (average tumor volume) (medicament 100 mg/kg, Day 14): 31% | average total volume of tumors in mice (M) (medicament 100 mg/kg, Day 14): 2.30* cm^3 | average volume of tumors (M) (medicament 100 mg/kg, Day 14): 0.48 cm^3 | relative change of the average total volume to that of Day − 1 (M) (medicament 100 mg/kg, Day 14): 38^a % | TGI (average total tumor volume) (medicament 100 mg/kg, Day 21): 46% | TGI (average tumor volume) (medicament 100 mg/kg, Day 21): 33%
